Laboratory results from paper PMC11050816, “Pharmacokinetics and Safety of Lurbinectedin Administrated with Itraconazole in Cancer Patients: A Drug–Drug Interaction Study” (Marine Drugs, 2024).
Read-outs that look alike come from different tables or passages of the source.

Experiments:
[1] = cited from earlier work
[2] = cited from earlier work; remark: listed apart in the source
[3] = set-up: method as in PMID 24563480; conditions: 1.3 mg/m^2 over 1 h without CYP3A4 inhibitors; cited from earlier work
[4] = Total plasma lurbinectedin pharmacokinetics with and without itraconazole (phase Ib drug-drug interaction study); type: in vivo, human
Description: (§1) The study consisted of two parts.

[5] = test system: cytochrome P450 (CYP) 3A; conditions: based on in vitro studies; cited from earlier work
[6] = Unbound plasma lurbinectedin pharmacokinetics with and without itraconazole (phase Ib drug-drug interaction study); type: in vivo, human
Description: as §1

[7] = Safety assessment: adverse events and laboratory abnormalities graded by NCI-CTCAE v. 5.0; type: in vivo, human
Description: Safety analyses included all 14 patients who received at least one dose of lurbinectedin (Part A, n = 3; Part B, n = 11). Thirteen of the fourteen treated patients (three in Part A and ten in Part B) received itraconazole plus lurbinectedin in Cycles 1 or 2, and all fourteen treated patients (three in Part A and 11 in Part B) received lurbinectedin alone in Cycles 1, 2, or 3.
as §1
Safety evaluations included assessments of AEs, clinical laboratory tests, deaths, vital signs measurements, and physical examinations. TEAEs were defined as any AE that worsened in severity from baseline or having their onset between the first dose of the study drug and 31 days (±10 days) after the last dose, death, or date of further therapy. AEs were coded based on the Medical Dictionary for Regulatory Activities (MedDRA) v. 23.0 and graded as per the National Cancer Institute–Common Terminology Criteria for Adverse Events (NCI-CTCAE) v. 5.0.

[8] = co-administration with itraconazole compared to lurbinectedin alone
[9] = co-administration with itraconazole compared to lurbinectedin alone, listed as LRB
[10] = co-administration with multiple oral doses of itraconazole
[11] = total plasma lurbinectedin, n = 8 patients per treatment
[12] = unbound plasma lurbinectedin, Test n = 5, Reference n = 8
[13] = Part A (LRB 0.8 mg/m^2 with ITZ, 3.2 mg/m^2 alone), all grades
[14] = Part A (LRB 0.8 mg/m^2 with ITZ, 3.2 mg/m^2 alone), grade 3
[15] = Part A (LRB 0.8 mg/m^2 with ITZ, 3.2 mg/m^2 alone), grade 4
[16] = Part B (LRB 0.9 mg/m^2 with ITZ, 3.2 mg/m^2 alone), all grades
[17] = Part B (LRB 0.9 mg/m^2 with ITZ, 3.2 mg/m^2 alone), grade 3
[18] = Part B (LRB 0.9 mg/m^2 with ITZ, 3.2 mg/m^2 alone), grade 4

COc1ccc2[nH]c3c(c2c1)CCN[C@]31CS[C@@H]2c3c(OC(C)=O)c(C)c4c(c3[C@H](COC1=O)N1[C@@H]2[C@H]2c3c(cc(C)c(OC)c3O)C[C@@H]([C@@H]1O)N2C)OCO4 [lurbinectedin]
Population estimate for total plasma CL ([1]; 1 h IV infusion, single agent or combined): 11.2 L/h
Extraction ratio [1]: 0.19
Population estimate of apparent volume at steady state [1]: 438 L
Reduction of CL ([1]; co-administration of cytochrome CYP3A inhibitors): 30%
Decrease of mean plasma CL ([1]; concomitant administration of aprepitant (a moderate CYP3A4 inhibitor)): 30%
Blood CL ([1]; corresponding to total plasma CL 11.2 L/h): ~ 17 L/h
Reduction of CL ([1]; high C-reactive protein): 20%
Reduction of CL ([1]; high α-1-acid glycoprotein): 28%
Reduction of CL ([1]; low albumin): 20%
Protein binding [2]: highly protein-bound
Time after starting the infusion for which plasma concentrations were measurable [3]: at least 160 h
Increase of total plasma AUC0–t [4, 8]: approximately 2.4 fold
Increase of total plasma AUC0–∞ [4, 8]: approximately 2.7 fold
Increase of total plasma Cmax [4, 8]: 15%
Increase of total plasma AUC0–t [4, 9]: 2.4 fold
Increase of total plasma AUC0–∞ [4, 9]: 2.7 fold
Prolongation of terminal half-life (t1/2), total plasma [4, 10]: 2.2 fold
Reduction of total plasma CL [4, 10]: 63%
clearance ([4]; human, intravenous, 3.2 mg/m^2, total plasma lurbinectedin, n = 8 patients per treatment, read-out: CL, geometric mean (CV%) (converted)): 158 mL/min
Vd ([4]; human, intravenous, 3.2 mg/m^2, total plasma lurbinectedin, n = 8 patients per treatment, read-out: Vss, geometric mean (CV%)): 419 L
half-life ([4]; human, intravenous, 3.2 mg/m^2, total plasma lurbinectedin, n = 8 patients per treatment, read-out: t1/2, geometric mean (CV%) (converted)): 46.6 h
AUC0–t, dose-normalized, geometric mean (CV%) [4, 11]: 103.4 (78.85) µg·h/L/mg
AUC0–∞, dose-normalized, geometric mean (CV%) [4, 11]: 105.8 (77.37) µg·h/L/mg
Cmax, dose-normalized, geometric mean (CV%) [4, 11]: 22.43 (53.75) µg/L/mg
Major clearance (CL) mechanism [5]: metabolism of lurbinectedin by cytochrome P450 (CYP) 3A
Decrease of unbound CL [6, 8]: 58%
Increase of unbound AUC0–∞ [6, 8]: 2.4 fold
Unbound t1/2 longer [6, 8]: 2 fold
Vd ([6]; human, intravenous, 3.2 mg/m^2, unbound plasma lurbinectedin, Test n = 5, Reference n = 8, read-out: Unbound Vss, geometric mean (CV%)): 235000 L
half-life ([6]; human, intravenous, 3.2 mg/m^2, unbound plasma lurbinectedin, Test n = 5, Reference n = 8, read-out: Unbound t1/2, geometric mean (CV%) (converted)): 46.6 h
Unbound AUC0–t, dose-normalized, geometric mean (CV%) [6, 12]: 184.55 (57.58) pg·h/mL/mg
Unbound AUC0–∞, dose-normalized, geometric mean (CV%) [6, 12]: 188.84 (56.92) pg·h/mL/mg
Unbound CL, geometric mean (CV%) [6, 12]: 5295.44 (56.92) L/h
Unbound Cmax, dose-normalized, geometric mean (CV%) [6, 12]: 40.03 (21.75) pg/mL/mg
Tolerability ([7]; 0.9 mg/m^2 1 h IV infusion Day 1 q3wk with itraconazole): well tolerated
ALT increased (biochemical laboratory abnormality, regardless of relationship) [7, 13]: 1 (33) n (%) of patients
Anemia (hematological laboratory abnormality, regardless of relationship) [7, 13]: 3 (100) n (%) of patients
Constipation (treatment-related AE) [7, 13]: 1 (33) n (%) of patients
GGT increased (biochemical laboratory abnormality, regardless of relationship) [7, 13]: 1 (33) n (%) of patients
Leukopenia (hematological laboratory abnormality, regardless of relationship) [7, 13]: 3 (100) n (%) of patients
Lymphopenia (hematological laboratory abnormality, regardless of relationship) [7, 13]: 3 (100) n (%) of patients
Neutropenia (hematological laboratory abnormality, regardless of relationship) [7, 13]: 2 (67) n (%) of patients
Thrombocytopenia (hematological laboratory abnormality, regardless of relationship) [7, 13]: 2 (67) n (%) of patients
Vomiting (treatment-related AE) [7, 13]: 1 (33) n (%) of patients
ALT increased (biochemical laboratory abnormality, regardless of relationship) [7, 14]: 1 (33) n (%) of patients
Leukopenia (hematological laboratory abnormality, regardless of relationship) [7, 14]: 1 (33) n (%) of patients
Lymphopenia (hematological laboratory abnormality, regardless of relationship) [7, 14]: 1 (33) n (%) of patients
Leukopenia (hematological laboratory abnormality, regardless of relationship) [7, 15]: 1 (33) n (%) of patients
Neutropenia (hematological laboratory abnormality, regardless of relationship) [7, 15]: 2 (67) n (%) of patients
Bone pain (treatment-emergent AE, regardless of relationship) ([7]; Part A, all grades): 1 (33) n (%) of patients
Constipation (treatment-emergent AE, regardless of relationship) ([7]; Part A, all grades): 1 (33) n (%) of patients
Dysgeusia (treatment-emergent AE, regardless of relationship) ([7]; Part A, all grades): 1 (33) n (%) of patients
Fatigue (treatment-emergent AE, regardless of relationship) ([7]; Part A, all grades): 1 (33) n (%) of patients
Pleural effusion (treatment-emergent AE, regardless of relationship) ([7]; Part A, all grades): 1 (33) n (%) of patients
Vomiting (treatment-emergent AE, regardless of relationship) ([7]; Part A, all grades): 1 (33) n (%) of patients
Pleural effusion (treatment-emergent AE, regardless of relationship) ([7]; Part A, grade 3): 1 (33) n (%) of patients
ALT increased (biochemical laboratory abnormality, regardless of relationship) [7, 16]: 9 (82) n (%) of patients
Acute kidney injury (treatment-related AE) [7, 16]: 1 (9) n (%) of patients
Anemia (hematological laboratory abnormality, regardless of relationship) [7, 16]: 9 (82) n (%) of patients
CPK increased (biochemical laboratory abnormality, regardless of relationship) [7, 16]: 1 (9) n (%) of patients
Fatigue (treatment-related AE) [7, 16]: 2 (18) n (%) of patients
GGT increased (biochemical laboratory abnormality, regardless of relationship) [7, 16]: 4 (36) n (%) of patients
Leukopenia (hematological laboratory abnormality, regardless of relationship) [7, 16]: 8 (73) n (%) of patients
Lymphopenia (hematological laboratory abnormality, regardless of relationship) [7, 16]: 9 (82) n (%) of patients
Nausea (treatment-related AE) [7, 16]: 5 (45) n (%) of patients
Neutropenia (hematological laboratory abnormality, regardless of relationship) [7, 16]: 8 (73) n (%) of patients
Rhabdomyolysis (treatment-related AE) [7, 16]: 1 (9) n (%) of patients
Thrombocytopenia (hematological laboratory abnormality, regardless of relationship) [7, 16]: 8 (73) n (%) of patients
Vomiting (treatment-related AE) [7, 16]: 3 (27) n (%) of patients
Acute kidney injury (treatment-related AE) [7, 17]: 1 (9) n (%) of patients
Anemia (hematological laboratory abnormality, regardless of relationship) [7, 17]: 1 (9) n (%) of patients
GGT increased (biochemical laboratory abnormality, regardless of relationship) [7, 17]: 1 (9) n (%) of patients
Leukopenia (hematological laboratory abnormality, regardless of relationship) [7, 17]: 5 (45) n (%) of patients
Lymphopenia (hematological laboratory abnormality, regardless of relationship) [7, 17]: 2 (18) n (%) of patients
Neutropenia (hematological laboratory abnormality, regardless of relationship) [7, 17]: 5 (45) n (%) of patients
Rhabdomyolysis (treatment-related AE) [7, 17]: 1 (9) n (%) of patients
Vomiting (treatment-related AE) [7, 17]: 1 (9) n (%) of patients
CPK increased (biochemical laboratory abnormality, regardless of relationship) [7, 18]: 1 (9) n (%) of patients
Leukopenia (hematological laboratory abnormality, regardless of relationship) [7, 18]: 1 (9) n (%) of patients
Lymphopenia (hematological laboratory abnormality, regardless of relationship) [7, 18]: 1 (9) n (%) of patients
Neutropenia (hematological laboratory abnormality, regardless of relationship) [7, 18]: 3 (27) n (%) of patients
Thrombocytopenia (hematological laboratory abnormality, regardless of relationship) [7, 18]: 1 (9) n (%) of patients
Acute kidney injury (treatment-emergent AE, regardless of relationship) ([7]; Part B, all grades): 1 (9) n (%) of patients
Deep vein thrombosis (treatment-emergent AE, regardless of relationship) ([7]; Part B, all grades): 1 (9) n (%) of patients
Diarrhea (treatment-emergent AE, regardless of relationship) ([7]; Part B, all grades): 1 (9) n (%) of patients
Fatigue (treatment-emergent AE, regardless of relationship) ([7]; Part B, all grades): 2 (18) n (%) of patients
Intestinal pseudo-obstruction (treatment-emergent AE, regardless of relationship) ([7]; Part B, all grades): 1 (9) n (%) of patients
Nausea (treatment-emergent AE, regardless of relationship) ([7]; Part B, all grades): 5 (45) n (%) of patients
Respiratory failure (treatment-emergent AE, regardless of relationship) ([7]; Part B, all grades): 1 (9) n (%) of patients
Rhabdomyolysis (treatment-emergent AE, regardless of relationship) ([7]; Part B, all grades): 1 (9) n (%) of patients
Small intestinal obstruction (treatment-emergent AE, regardless of relationship) ([7]; Part B, all grades): 1 (9) n (%) of patients
Stomatitis (treatment-emergent AE, regardless of relationship) ([7]; Part B, all grades): 1 (9) n (%) of patients
Vomiting (treatment-emergent AE, regardless of relationship) ([7]; Part B, all grades): 3 (27) n (%) of patients
Acute kidney injury (treatment-emergent AE, regardless of relationship) ([7]; Part B, grade 3): 1 (9) n (%) of patients
Deep vein thrombosis (treatment-emergent AE, regardless of relationship) ([7]; Part B, grade 3): 1 (9) n (%) of patients
Rhabdomyolysis (treatment-emergent AE, regardless of relationship) ([7]; Part B, grade 3): 1 (9) n (%) of patients
Small intestinal obstruction (treatment-emergent AE, regardless of relationship) ([7]; Part B, grade 3): 1 (9) n (%) of patients
Vomiting (treatment-emergent AE, regardless of relationship) ([7]; Part B, grade 3): 1 (9) n (%) of patients
Patients with lurbinectedin dose reduction due to AEs ([7]; during treatment with lurbinectedin alone (grade 3 ALT increase; grade 4 neutropenia)): Two
Patients who discontinued treatment due to a treatment-related serious AE ([7]; grade 3 rhabdomyolysis, Cycle 2 of Part B (Sequence 1), lurbinectedin alone): one
